Legend:
hROMK (human Kir1.1) = hROMK (human Kir1.1) (Homo sapiens (Human), UniProt P48048); assay: cell-based; settings: CHO T-Rex hROMK stable cell line; thallium flux; 10-point concentration response curve; read-out: Human ROMK Th Flux IC50
Procedure: Solutions and reagents: Thallium flux assay was performed using FluxOR kit (F10017, Life Technologies). Loading buffer, assay buffer and stimulus buffer were prepared using kit components. HBSS (Hank's balanced salt solution, Cat#14025-092) was purchased separately from Life Technologies.
To prepare 10 ml of loading buffer: 10 μl of FluxOR dye (reconstituted in DMSO) was first added to 100 μl of powerload concentrate and this mix along with 100 μl of Probenicid (100×) was then added to 9.79 ml of HBSS. Assay buffer (10 ml) was prepared by addition of 2 ml of FluxOR chloride free buffer (5×), 100 μl of Probenicid (100×), and 0.2 ml of Ouabain (13.77 mM) to 7.7 ml of deionized water. Stimulus buffer was composed of 15 mM Tl2SO4, 0.75 mM K2SO4 in FluxOR chloride free buffer (diluted to 1× using deionized water). The final concentration of Tl2SO4 and K2SO4 in the assay plate was 3 mM and 0.15 mM, respectively.
Plating and induction of cells: The CHO T-Rex hROMK (human Kir1.1) stable cell line was maintained in Ham's F12 media supplemented with 10% FBS, 1% Penicillin-Streptomycin, 500 μg/ml Zeocin and 10 μg/ml Blasticidin at 37° C. in a 5% CO2 incubator. One day before the experiment, the cells were dissociated by incubation with Versene solution (15040-066, Life Technologies) for 10 minutes at 37° C. followed by addition of growth media. The cell suspension was centrifuged at 1200 rpm for 5 min. After discarding the supernatant, the cells were resuspended in fresh growth media and cell concentration was determined using a hemocytometer. Next, 0.5 μg/ml of Doxycycline was added to the cell suspension to induce hROMK channel expression and 50 μl (10,000 cells/well) of cell suspension was added to each well of a poly-D lysine coated 384 well black, optically clear bottom plate (6007718, Perkin Elmer). The assay plate was kept at 37° C. in a 5% CO2 incubator.
Assay protocol: On the day of experiment, media was removed and loading buffer was added (30 μl/well) to the assay plate. The cells were incubated in the loading buffer for 30 minutes at 37° C. The loading buffer was then replaced by assay buffer (30 μl/well) followed by addition of test compounds or controls. The cells were incubated with compounds for 30 minutes and the plate was then mounted on FlexStation (Molecular Devices) for fluorescence read out with excitation and emission wavelengths at 488 and 525 nm, respectively. Each well was read for 90 sec at 2 sec interval and the stimulus buffer was added after 20 seconds of baseline recording. The final DMSO concentration was either 0.5 or 1% in the assay plate. Positive and negative controls were defined by addition of DMSO or 3 μM of a standard ROMK inhibitor, respectively, to the wells instead of a test compound.
A 10-point concentration response curve was used to estimate the IC50 value of test compounds.

hERG channels = hERG channels (Homo sapiens (Human), UniProt Q12809); assay: hERG Manual Patch Clamp Assay; format: cell-based; settings: human, HEK 293 cells stably expressing hERG channels, pH 7.4, 1 uM, read-out: hERG EP % Inh @ 1 uM
Chain of hERG channels (Q12809 whole entry): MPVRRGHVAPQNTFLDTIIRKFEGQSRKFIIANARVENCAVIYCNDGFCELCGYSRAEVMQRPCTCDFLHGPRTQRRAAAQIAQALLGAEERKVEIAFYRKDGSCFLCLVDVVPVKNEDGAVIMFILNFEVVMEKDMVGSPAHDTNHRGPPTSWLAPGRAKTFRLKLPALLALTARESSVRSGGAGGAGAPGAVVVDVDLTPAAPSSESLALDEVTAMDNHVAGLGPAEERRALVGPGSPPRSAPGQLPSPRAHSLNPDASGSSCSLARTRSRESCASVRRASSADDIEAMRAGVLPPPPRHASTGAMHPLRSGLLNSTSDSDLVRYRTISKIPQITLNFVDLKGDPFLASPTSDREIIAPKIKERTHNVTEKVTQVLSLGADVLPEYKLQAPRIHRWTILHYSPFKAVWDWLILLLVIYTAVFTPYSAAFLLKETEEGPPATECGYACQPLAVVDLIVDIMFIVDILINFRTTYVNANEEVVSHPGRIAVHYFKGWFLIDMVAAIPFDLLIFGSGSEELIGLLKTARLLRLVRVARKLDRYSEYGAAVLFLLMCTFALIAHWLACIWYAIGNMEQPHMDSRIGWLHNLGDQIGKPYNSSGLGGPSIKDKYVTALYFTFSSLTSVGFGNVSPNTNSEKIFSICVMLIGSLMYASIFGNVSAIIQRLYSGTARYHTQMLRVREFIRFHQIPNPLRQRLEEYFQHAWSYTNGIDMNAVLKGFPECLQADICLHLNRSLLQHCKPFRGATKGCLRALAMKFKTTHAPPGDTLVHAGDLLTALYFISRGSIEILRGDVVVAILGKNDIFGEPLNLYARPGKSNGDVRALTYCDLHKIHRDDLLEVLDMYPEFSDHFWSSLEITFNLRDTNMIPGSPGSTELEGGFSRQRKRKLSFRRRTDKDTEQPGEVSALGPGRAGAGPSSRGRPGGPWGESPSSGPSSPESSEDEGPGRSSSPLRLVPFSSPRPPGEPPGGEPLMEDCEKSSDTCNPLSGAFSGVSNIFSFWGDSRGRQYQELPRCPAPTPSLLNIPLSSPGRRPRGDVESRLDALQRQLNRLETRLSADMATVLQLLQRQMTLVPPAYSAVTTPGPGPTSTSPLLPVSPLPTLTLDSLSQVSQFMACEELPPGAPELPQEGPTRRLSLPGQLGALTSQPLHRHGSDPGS

Chain of hROMK (human Kir1.1) (P48048 whole entry): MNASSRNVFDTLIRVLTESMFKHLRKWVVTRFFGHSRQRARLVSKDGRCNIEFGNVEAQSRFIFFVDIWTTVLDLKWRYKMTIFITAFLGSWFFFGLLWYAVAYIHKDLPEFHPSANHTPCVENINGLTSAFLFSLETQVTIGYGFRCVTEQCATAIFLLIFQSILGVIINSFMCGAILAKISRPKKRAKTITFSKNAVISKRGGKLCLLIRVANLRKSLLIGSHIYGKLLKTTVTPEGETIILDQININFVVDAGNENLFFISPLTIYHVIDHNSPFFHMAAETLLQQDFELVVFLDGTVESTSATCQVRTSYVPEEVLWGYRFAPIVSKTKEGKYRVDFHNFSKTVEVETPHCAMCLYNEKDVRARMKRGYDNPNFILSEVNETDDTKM

| SMILES | IC50 (hROMK (human Kir1.1)) [nM] | inhibition at 1 µM (hERG channels) [%] |
| --- | --- | --- |
| Cc1nn(-c2ccc(CN3CCN[C@H](c4ccc5c(c4C)COC5=O)C3)nc2)cc1C#N [Example 241-I, (R)-3-methyl-1-(6-((3-(4-methyl-1-oxo-1,3-dihydroisobenzofuran-5-yl)piperazin-1-yl)methyl)pyridin-3-yl)-1H-pyrazole-4-carbonitrile] | 41 | 18 |
| Cc1cc(-n2cc(CN3CC[C@@H](O)[C@H](c4ccc5c(c4C)COC5=O)C3)n(C)c2=O)ncc1C#N [Example 250-I, 6-(4-(((3R,4R)-4-hydroxy-3-(4-methyl-1-oxo-1,3-dihydroisobenzofuran-5-yl)piperidin-1-yl)methyl)-3-methyl-2-oxo-2,3-dihydro-1H-imidazol-1-yl)-4-methylnicotinonitrile] | 27 | 20 |
| Cc1c([C@@H]2CN(Cc3ccc(-n4cc(C#N)cn4)nc3)CCN2)ccc2c1COC2=O [Example 64-I, (R)-1-(5-((3-(4-methyl-1-oxo-1,3-dihydroiso-benzofuran-5-yl)piper-azin-1-yl)methyl)pyri-din-2-yl)-1H-pyrazole-4-carbonitrile] | 8.8 | 45 |
| Cc1c([C@@H]2CN(Cc3cnc(-n4cnc(C#N)c4)nc3)CCN2)ccc2c1COC2=O [Example 215-I] | 11 | 29 |
| Cc1cc(-n2cc(CN3CC[C@@H](O)[C@H](c4ccc5c(c4C)COC5=O)C3)c(C(F)F)n2)ncc1C#N [Example 245-I, 6-(3-(difluoromethyl)-4-(((3R,4R)-4-hydroxy-3-(4-methyl-1-oxo-1,3-dihydroisobenzofuran-5-yl)piperidin-1-yl)methyl)-1H-pyrazol-1-yl)-4-methylnicotinonitrile] | 18 | 17 |
| COc1cc(-n2cnc(C)c2)ncc1CN1CCN[C@H](c2ccc3c(c2C)COC3=O)C1 [Example 149-I, (R)-5-(4-((4-methoxy-6-(4-methyl-1H-imidazol-1-yl)pyridin-3-yl)methyl)piperazin-2-yl)-4-methylisobenzofuran-1(3H)-one] | 52 | 7.6 |
| Cc1c([C@@H]2CN(Cc3cnn(-c4cc(N5CCOCC5)c(C#N)cn4)c3)CCN2)ccc2c1COC2=O [Example 220-I, (R)-6-(4-((3-(4-methyl-1-oxo-1,3-dihydroisobenzofuran-5-yl)piperazin-1-yl)methyl)-1H-pyrazol-1-yl)-4-morpholinonicotinonitrile] | 29 | 30 |
| COc1cc(-n2cc(CN3CC[C@@H](O)[C@H](c4ccc5c(c4C)COC5=O)C3)cn2)ncc1C#N [Example 112-I, 6-(4-(((3R,4R)-4-hydroxy-3-(4-methyl-1-oxo-1,3-dihydroisobenzofur-an-5-yl)piperidin-1-yl)methyl)-1H-pyrazol-1-yl)-4-methoxynicotinonit-rile] | 18 | 22 |
| COc1c(CN2CCN[C@H](c3ccc4c(c3C)COC4=O)C2)cnn1-c1cc(C)c(C#N)cn1 [Example 6-I, (R)-6-(5-methoxy-4-((3-(4-methyl-1-oxo-1,3-dihydroisobenzofuran-5-yl)piperazin-1-yl)methyl)-1H-pyrazol-1-yl)-4-methylnicotinonitrile] | 40 | 38 |
| Cc1cc(-c2cc(CN3CC(c4ccc5c(c4C)COC5=O)NC(C)(C)C3)on2)ncc1C#N (single isomer, unassigned) [Example 268-I, 6-(5-((3,3-dimethyl-5-(4-methyl-1-oxo-1,3-dihydroisobenzofuran-5-yl)piperazin-1-yl)methyl)isoxazol-3-yl)-4-methylnicotinonitrile] | 20 | 9 |
| Cc1c([C@@H]2CN(Cc3cnc(-n4cc(C#N)c(C(F)F)n4)nc3)CCN2)ccc2c1COC2=O [Example 229-I, (R)-3-(difluoromethyl)-1-(5-((3-(4-methyl-1-oxo-1,3-dihydroisobenzofuran-5-yl)piperazin-1-yl)methyl)pyrimidin-2-yl)-1H-pyrazole-4-carbonitrile] | 21 | 25 |
| Cc1c([C@@H]2CN(Cc3cnn(-c4ccnc(C(F)(F)F)c4)c3)C[C@H](C)N2)ccc2c1COC2=O [Example 128-I, 4-methyl-5-((2R,6S)-6-methyl-4-((1-(2-(trifluoromethyl)pyridin-4-yl)-1H-pyrazol-4-yl)methyl)piperazin-2-yl)isobenzofuran-1(3H)-one] | 66 | 19 |
| Cc1c([C@@H]2CN(Cc3cn(-c4ccc(C#N)cn4)cn3)CCO2)ccc2c1COC2=O [Example 28-I, (R)-6-(4-((2-(4-methyl-1-oxo-1,3-dihydroiso-benzofuran-5-yl)morpho-lino)methyl)-1H-imidazol-1-yl)nicotino-nitrile] | 85 | 15 |
| CCc1nn(-c2ccc(CN3CCN[C@H](c4ccc5c(c4C)COC5=O)C3)cn2)cc1C#N [Example 226-I, (R)-3-ethyl-1-(5-((3-(4-methyl-1-oxo-1,3-dihydroisobenzofuran-5-yl)piperazin-1-yl)methyl)pyridin-2-yl)-1H-pyrazole-4-carbonitrile] | 14 | 33 |
| Cc1cc(-n2cc(CN3CCC(C)(O)C(c4ccc5c(c4C)COC5=O)C3)cn2)ncc1C#N (single isomer, unassigned) [Example 114-I, 6-(4-((4-hydroxy-4-methyl-3-(4-methyl-1-oxo-1,3-dihydroisobenzofuran-5-yl)piperidin-1-yl)methyl)-1H-pyrazol-1-yl)-4-methylnicotinonitrile] | 32 | 4.2 |
| Cc1c([C@@H]2CN(Cc3cnc(-n4cnc(C#N)n4)nc3)CCN2)ccc2c1COC2=O [Example 217-I, (R)-1-(5-((3-(4-methyl-1-oxo-1,3-dihydroisobenzofuran-5-yl)piperazin-1-yl)methyl)pyrimidin-2-yl)-1H-1,2,4-triazole-3-carbonitrile] | 24 | 16 |
| Cc1cc(-n2cc(CN3CC(CO)CC(c4ccc5c(c4C)COC5=O)C3)cn2)ncc1C#N (single isomer, unassigned) [Example 261-II, 6-(4-((3-(hydroxymethyl)-5-(4-methyl-1-oxo-1,3-dihydroisobenzofuran-5-yl)piperidin-1-yl)methyl)-1H-pyrazol-1-yl)-4-methylnicotinonitrile] | 27 | 44 |
| Cc1c([C@@H]2CN(Cc3cnn(-c4cc(OC(C)C)c(C#N)cn4)c3)CCN2)ccc2c1COC2=O [Example 140-I, (R)-4-isopropoxy-6-(4-((3-(4-methyl-1-oxo-1,3-dihydroisobenzofuran-5-yl)piperazin-1-yl)methyl)-1H-pyrazol-1-yl)nicotinonitrile] | 26 | 49 |
| Cc1cc(-n2cc(CN3CCN[C@H](c4ccc5c(c4)COC5=O)C3)cn2)ncc1C#N [Example 239-I, (R)-4-methyl-6-(4-((3-(1-oxo-1,3-dihydroisobenzofuran-5-yl)piperazin-1-yl)methyl)-1H-pyrazol-1-yl)nicotinonitrile] | 63 | 18 |
| Cc1c([C@@H]2CN(Cc3cnn(-c4cccc(N(C)S(C)(=O)=O)n4)c3)C[C@H](C)N2)ccc2c1COC2=O [Example 252-I, N-methyl-N-(6-(4-(((3S,5R)-3-methyl-5-(4-methyl-1-oxo-1,3-dihydroisobenzofuran-5-yl)piperazin-1-yl)methyl)-1H-pyrazol-1-yl)pyridin-2-yl)methanesulfonamide] | 72 | 8.8 |
| Cc1c([C@@H]2CN(Cc3cnn(-c4cc(N5CCOC5=O)ccn4)c3)CCN2)ccc2c1COC2=O [Example 185-I, (R)-3-(2-(4-((3-(4-methyl-1-oxo-1,3-dihydroisobenzofuran-5-yl)piperazin-1-yl)methyl)-1H-pyrazol-1-yl)pyridin-4-yl)oxazolidin-2-one] | 100 | 9.6 |
| COc1cc(-c2ncc(CN3CCO[C@H](c4ccc5c(c4C)COC5=O)C3)s2)ncc1C#N [Example 32-I, (R)-4-methoxy-6-(5-((2-(4-methyl-1-oxo-1,3-dihydroisobenzofuran-5-yl)morpholino)methyl)thiazol-2-yl)nicotino-nitrile] | 24 | 6.2 |
| Cc1cc(-n2cc(CN3CC(c4ccc5c(c4C)COC5=O)NCC3CO)cn2)ncc1C#N (single isomer, unassigned) [Example 123-I, 6-(4-((2-(hydroxymethyl)-5-(4-methyl-1-oxo-1,3-dihydroisobenzofuran-5-yl)piperazin-1-yl)methyl)-1H-pyrazol-1-yl)-4-methylnicotinonitrile] | 74 | 7.2 |
| Cc1cn(-c2ccc(CN3CCN[C@H](c4ccc5c(c4C)COC5=O)C3)cn2)nn1 [Example 222-I, (R)-4-methyl-5-(4-((6-(4-methyl-1H-1,2,3-triazol-1-yl)pyridin-3-yl)methyl)piperazin-2-yl)isobenzofuran-1(3H)-one] | 60 | 12 |
| Cc1cc(-n2cc(CN3CCN(C)[C@H](c4ccc5c(c4C)COC5=O)C3)cn2)ncc1C#N [Example 70-I, (R)-4-methyl-6-(4-((4-methyl-3-(4-methyl-1-oxo-1,3-dihydroisobenzo-furan-5-yl)piperazin-1-yl)methyl)-1H-pyra-zol-1-yl)nicotinonitrile] | 59 | 8.4 |
| Cc1c([C@@H]2CN(Cc3cnn(-c4ccc(C#N)cc4)c3)CCO2)ccc2c1COC2=O [Example 40-I, (R)-4-(4-((2-(4-methyl-1-oxo-1,3-dihydroiso-benzofuran-5-yl)morpho-lino)methyl)-1H-pyrazol-1-yl)benzonitrile] | 27 | 54 |
| COC1CC(c2ccc3c(c2C)COC3=O)CN(Cc2cnn(-c3cc(C)c(C#N)cn3)c2)C1 (single isomer, unassigned) [Example 200-II, 6-(4-((3-methoxy-5-(4-methyl-1-oxo-1,3-dihydroisobenzofuran-5-yl)piperidin-1-yl)methyl)-1H-pyrazol-1-yl)-4-methylnicotinonitrile] | 64 | 27 |

— US10501449B2 (priority 2018, dated 2019)
